Test results published in patent US7220784B2, “Substituted stilbenes and their reactions” (priority 2000, dated 2007).
Read-outs that look alike come from different tables or passages of the source.

Columns and labels:
[1] = tested on: K562 cells; assay: In situ ultra violet irradiation of dosed K562 cells, IC50; assay type: cell-based, human; settings: read-out: IC50 K562 (Nm)
Procedure: Previously, the isomerisation study had been performed ex situ, i.e. in a photochemical reactor. However, it was necessary to illustrate the potential of the process as a real therapy by repeating the isomerization in the presence of the caner cells i.e. in situ. […] Following irradiation, the cells were incubated in the normal way and the IC50 values were determined.
These consisted of i) exposing K562 cells only (i.e. cells which were not dosed with any potential drug candidate) to ultra violet light, ii) preventing K562 cells dosed with drug candidate from being exposed to ultra violet light, and iii) preventing K562 cells only (i.e. cells which were not dosed with any potential drug candidate) from being exposed to ultra violet light. […]

[2] = tested on: K562 human myelogeneous leukaemia cell line; assay: Cytotoxicity/growth inhibition assay (MTT), K562; assay type: cell-based
Source text: In addition to the cell lines described in this paper, other established human cell lines (K562, HUVEC, H460, BE, H529, and HT29) were used in the cytotoxicity/growth inhibition assay. • (1) Inhibition of tubulin assembly. The figure quoted is the concentration required to reduce assembly of tubulin by 50%. Tubulin assembly is monitored by light scatter/absorption at 350 nm.
(§1) (2) Competition for the colchicine binding site on tubulin. The figure quoted represents the % of ^3H-colchicine bound following co-incubation of test compound and ^3H-cochicine with isolated tubulin. Where ester pro-drugs were used the experiments were carried out in the presence and absence of porcine liver esterase. • (3) Cytotoxicity/growth inhibition assay. This was carried out by the MTT assay. • (4) Permeability (shape-change) assay in endothelial cells. […] This involved the diffusion of a fluorescently labelled dextran through a barrier of endothelial cells (HUVEC) grown to confluence on a porous membrane. The effect of agents to alter the shape of these cells results in an increase in the permeability of the cells to the dye. The figure represents the increase in permeability over control cultures when drug is added (30 minutes, 1 mM.). • (5) Experiments to study the anti-vascular effects of these agents were carried out as described previously by our group. […] The anti-vascular effects of the agents were monitored by either positron emission tomography (PET) or by histologogical examination following treatment of mice bearing T50:80 murine breast tumours, or H460 human lung tumours. • (6) Anti-tumour efficacy of agents was determined in xenografts of H460 human lung cancer. Animals (n=5) were trated either with 5 daily injections and tumour size measured with time following treatment. • (7) The pharmacokinetic profile of agents was determined in mice following injection with drug. Blood was taken at various times following treatment and analysed by HPLC with UV detection. […] (AND(P)H:quinone oxidoreductace, EC 1.6.99.2). DT-diaphorase is an enzyme over-expressed in a number of human tumours. […] This two-electron reducing enzyme can be used to selectively activate prodrugs within cancers which over-express the enzyme.

[3] = tested on: P388 murine leukaemia cell line; assay: Cytotoxicity/growth inhibition assay (MTT), P388; assay type: cell-based
Procedure: as §1

[4] = tested on: tubulin; assay: MA IC50 (Tables 12-26, abbreviation not defined); assay type: biochemical
[5] = tested on: tubulin; assay: CD IC50 (Tables 12-26, abbreviation not defined); assay type: binding
[6] = tested on: K562; assay: K562 cell cycle analysis; assay type: cell-based, human; settings: K562
[7] = Homo sapiens, K562, MTT, read-out: K562 IC50
[8] = Homo sapiens, K562, Table 22, read-out: MTT (K582) IC50
[9] = Table 22, read-out: MTT (K582) IC50
[10] = of cells with DNA content = 2 n or >2 n

| Compound | IC50 [2, 7] [µM] | IC50 [4] [µM] | IC50 [5] [µM] | further results |
| --- | --- | --- | --- | --- |
| 4-[2′-methoxy-4′-({2″-methoxy-5″-[(E)-2′″-3′″,4′″,5′″-trimethoxyphenyl)ethenyl]phenoxy}methyl)-5′-nitrophenoxy]butanoic acid(potassium salt) [Compound E-12] | – | – | – | IC50 ([1]; in situ UV 0 mins (Table 10)): > 50 µM; IC50 ([1]; in situ UV 0.5 mins (Table 10)): 1.01 µM; IC50 ([1]; in situ UV 1 mins (Table 10)): 0.41 µM; IC50 ([1]; in situ UV 1.5 mins (Table 10)): 0.3 µM; IC50 ([1]; in situ UV 2 mins (Table 10)): 0.16 µM; IC50 ([1]; in situ UV 3 mins (Table 10)): 0.05 µM; IC50 ([1]; in situ UV 4 mins (Table 10)): 0.058 µM; IC50 ([1]; in situ UV 5 mins (Table 10)): 0.046 µM; IC50 ([1]; in situ UV 7.5 mins (Table 10)): 0.022 µM; IC50 ([1]; in situ UV 10 mins (Table 10)): 0.016 µM; IC50 ([1]; in situ UV 12.5 mins (Table 10)): 0.012 µM; IC50 ([1]; in situ UV 15 mins (Table 10)): 0.01 µM; IC50 ([1]; in situ UV 17.5 mins (Table 10)): 0.009 µM; IC50 ([1]; in situ UV 20 mins (Table 10)): 0.008 µM |
| COc1ccc(/C=C(/C)c2cc(OC)c(OC)c(OC)c2)cc1O[Si](C)(C)C(C)(C)C [Compound 17a, Z-(3′-t-butyldimethylsilyloxy-4′-methoxyphenyl)-2-(3″,4″,5″-trimethoxyphenyl)propene] | 0.2 | – | – | – |
| COc1ccc(/C=C(\C)c2cc(OC)c(OC)c(OC)c2)cc1O[Si](C)(C)C(C)(C)C [Compound 17b, E-1-(3′-t-Butyldimethylsilyloxy-4′-methoxyphenyl)-2-(3″,4″,5″-trimethoxyphenyl)propene] | 6 | – | – | – |
| COc1ccc(/C(C)=C\c2cc(OC)c(OC)c(OC)c2)cc1O [Compound 20, Z-1-(3′,4′,5′-trimethoxyphenyl)-2-(3″-hydroxy-4″-methoxyphenyl)propene] | 1.8 | – | – | IC50 ([3]; Mus musculus, P388, MTT): 7 µM |
| COc1ccc(/C=C(/C)c2cc(OC)c(OC)c(OC)c2)cc1 [Compound 23a, Z-1-(4′-Methoxyphenyl)-2-(3″,4″,5″-trimethoxyphenyl)propene] | 0.1 | – | – | – |
| COc1ccc(/C=C(\C)c2cc(OC)c(OC)c(OC)c2)cc1 [Compound 23b, E-1-(4′-Methoxyphenyl)-2-(3″,4″,5″-trimethoxyphenyl)propene] | 0.79 | – | – | – |
| COc1ccc(/C=C\c2cc(C)c(C)c(C)c2)cc1Oc1c(F)c(F)nc(F)c1F [Compound 27, (Z)-1-(3′,4′,5′-trimethylphenyl)-2-(3″-(2′″,3′″,5′″,6′″-tetrafluoropyridoxy)-4″-methoxyphenyl)ethene] | 9 | – | – | – |
| COc1ccc(C=C(C(=O)O)c2cc(OC)c(OC)c(OC)c2)cc1O [Compound 80] | – | > 10 | > 25 | IC50 [2, 8]: > 50 µM |
| COC(=O)C(=Cc1ccc(OC)c(O)c1)c1cc(OC)c(OC)c(OC)c1 [Compound 81] | – | > 10 | > 25 | IC50 [2, 8]: > 50 µM |
| COc1ccc(C=C(CO)c2cc(OC)c(OC)c(OC)c2)cc1O [Compound 82] | – | > 10 | > 25 | IC50 [2, 8]: > 50 µM |
| COc1ccc(/C=C/c2cc(OC)c(OC)c(OC)c2)cc1Br [Compound 96] | – | > 10 | > 25 | IC50 ([2]; MTT, read-out: K562 IC50): 7.83 µM |
| COc1cc(/C=C\c2cccc(O)c2)cc(OC)c1OC [Compound 101] | 0.14 | > 10 | > 25 | IC50 ([3]; Mus musculus, P388, MTT): 0.3 µM |
| COc1cc(/C=C\c2ccc(C)c(C)c2)cc(OC)c1OC [Compound 103] | 0.04 | 2 | > 25 | IC50 ([3]; Mus musculus, P388, MTT): 0.1 µM |
| COc1cc(/C=C/c2ccc(C)c(C)c2)cc(OC)c1OC [Compound 104] | – | > 10 | > 25 | IC50 ([3]; MTT): 20 µM; IC50 ([2]; MTT, read-out: K562 IC50): 35.8 µM |
| Cc1ccc(C=Cc2ccc(C)c(C)c2)cc1 [Compound 137] | 3.4 | > 10 | > 25 | IC50 ([3]; Mus musculus, P388, MTT): 2 µM |
| COc1ccc(C=Cc2ccc(C)c(C)c2)cc1[N+](=O)[O-] [Compound 139] | 1.8 | > 10 | > 25 | IC50 ([3]; Mus musculus, P388, MTT): 20 µM |
| COc1ccc(/C=C/c2ccc(C)c(C)c2)cc1[N+](=O)[O-] [Compound 140] | – | > 10 | > 25 | IC50 ([3]; MTT): > 50 µM; IC50 ([2]; MTT, read-out: K562 IC50): 24 µM |
| COc1ccc(C=C(C)c2cc(OC)c(OC)c(OC)c2)cc1O[Si](C)(C)C(C)(C)C [Compound 208] | – | 1.5 | > 25 | IC50 [2, 8]: 0.2 µM |
| COc1ccc(/C=C(\C)c2cc(OC)c(OC)c(OC)c2)cc1O[Si](C)(C)C(C)(C)C [Compound 209] | – | > 10 | > 25 | IC50 [2, 9]: 6 µM |

| Compound | IC50 [2, 7] [µM] | IC50 [4] [µM] | IC50 [5] [µM] | further results |
| --- | --- | --- | --- | --- |
| COc1ccc(/C=C(\C)c2cc(OC)c(OC)c(OC)c2)cc1O [Compound 211] | 0.7 | > 10 | > 25 | IC50 [2, 8]: 0.7 µM |
| COc1ccc(/C=C(\C)c2cc(OC)c(OC)c(OC)c2)cc1 [Compound 214] | – | > 10 | > 25 | IC50 [2, 9]: 0.8 µM |
| CCC(=Cc1ccc(OC)c(O[Si](C)(C)C(C)(C)C)c1)c1cc(OC)c(OC)c(OC)c1 [Compound 217] | – | > 10 | > 25 | IC50 [2, 8]: 0.5 µM |
| CC/C(=C\c1ccc(OC)c(O[Si](C)(C)C(C)(C)C)c1)c1cc(OC)c(OC)c(OC)c1 [Compound 218] | – | > 10 | > 25 | IC50 [2, 9]: 3.4 µM |
| CC/C(=C\c1ccc(OC)c(O)c1)c1cc(OC)c(OC)c(OC)c1 [Compound 220] | – | > 10 | > 25 | IC50 [2, 9]: 4 µM |
| COc1ccc(/C=C\c2cc(OC)c(OC)c(O[Si](C)(C)C(C)(C)C)c2)cc1F [Compound 240] | 0.5 | > 10 | > 25 | – |
| COc1ccc(/C=C/c2cc(OC)c(OC)c(O[Si](C)(C)C(C)(C)C)c2)cc1F [Compound 241] | – | > 10 | > 25 | IC50 ([2]; MTT, read-out: K562 IC50): 10 µM |
| COc1ccc(/C=C\c2cc(O)c(OC)c(OC)c2)cc1F [Compound 242] | 0.02 | 1.25 | 9 | % of cells with DNA content <2 n [6]: 29%; % of cells in G0–G1 [6, 10]: 7%; % of cells in G2-M [6, 10]: 71%; % of cells in S phase [6, 10]: 22% |
| COc1ccc(/C=C/c2cc(O)c(OC)c(OC)c2)cc1F [Compound 243] | – | > 10 | > 25 | IC50 ([2]; MTT, read-out: K562 IC50): 5 µM |
| CCOc1cc(C=Cc2ccc(OC)c(Br)c2)cc(OCC)c1OCC [Compound 247] | 0.6 | > 10 | > 25 | – |
| CCOc1cc(/C=C/c2ccc(OC)c(Br)c2)cc(OCC)c1OCC [Compound 248] | – | > 10 | > 25 | IC50 ([2]; MTT, read-out: K562 IC50): > 50 µM |
| CCOc1cc(C=Cc2ccc(OC)cc2)cc(OCC)c1OCC [Compound 249] | 0.5 | > 10 | > 25 | – |
| CCOc1cc(/C=C/c2ccc(OC)cc2)cc(OCC)c1OCC [Compound 250] | – | > 10 | > 25 | IC50 ([2]; MTT, read-out: K562 IC50): > 50 µM |
| CCOc1cc(/C=C/c2ccc(OC)c(F)c2)cc(OCC)c1OCC [Compound 252] | – | > 10 | > 25 | IC50 ([2]; MTT, read-out: K562 IC50): > 50 µM |
| CCOc1cc(/C=C/c2ccc(OC)c(O)c2)cc(OCC)c1OCC [Compound 254] | – | > 10 | > 25 | IC50 ([2]; MTT, read-out: K562 IC50): 0.2 µM |
| CCOc1cc(C=Cc2ccc(OC)c(Br)c2)cc(OCC)c1OCC [Compound 255] | – | > 10 | > 25 | – |
| CCOc1cc(C=Cc2ccc(OC)c(Cl)c2)cc(OCC)c1OCC [Compound 257] | 0.45 | > 10 | > 25 | – |
| CCOc1cc(/C=C/c2ccc(OC)c(Cl)c2)cc(OCC)c1OCC [Compound 258] | – | > 10 | > 25 | IC50 ([2]; MTT, read-out: K562 IC50): 7 µM |
